Measured values reported in patent publication US10988477B2 (Merck Patent GmbH, priority 2018, dated 2021).

These molecules were tested against GCN2 kinase (Homo sapiens, UniProt Q9P2K8) (assay: GCN2 enzyme inhibition assay (Transcreener ADP2 fluorescence polarization)). Conditions: Enzyme activity for compounds of Formula IV; Ki(app), 280 μM ATP, 25° C.
Sequence of GCN2 kinase (Q9P2K8 whole entry): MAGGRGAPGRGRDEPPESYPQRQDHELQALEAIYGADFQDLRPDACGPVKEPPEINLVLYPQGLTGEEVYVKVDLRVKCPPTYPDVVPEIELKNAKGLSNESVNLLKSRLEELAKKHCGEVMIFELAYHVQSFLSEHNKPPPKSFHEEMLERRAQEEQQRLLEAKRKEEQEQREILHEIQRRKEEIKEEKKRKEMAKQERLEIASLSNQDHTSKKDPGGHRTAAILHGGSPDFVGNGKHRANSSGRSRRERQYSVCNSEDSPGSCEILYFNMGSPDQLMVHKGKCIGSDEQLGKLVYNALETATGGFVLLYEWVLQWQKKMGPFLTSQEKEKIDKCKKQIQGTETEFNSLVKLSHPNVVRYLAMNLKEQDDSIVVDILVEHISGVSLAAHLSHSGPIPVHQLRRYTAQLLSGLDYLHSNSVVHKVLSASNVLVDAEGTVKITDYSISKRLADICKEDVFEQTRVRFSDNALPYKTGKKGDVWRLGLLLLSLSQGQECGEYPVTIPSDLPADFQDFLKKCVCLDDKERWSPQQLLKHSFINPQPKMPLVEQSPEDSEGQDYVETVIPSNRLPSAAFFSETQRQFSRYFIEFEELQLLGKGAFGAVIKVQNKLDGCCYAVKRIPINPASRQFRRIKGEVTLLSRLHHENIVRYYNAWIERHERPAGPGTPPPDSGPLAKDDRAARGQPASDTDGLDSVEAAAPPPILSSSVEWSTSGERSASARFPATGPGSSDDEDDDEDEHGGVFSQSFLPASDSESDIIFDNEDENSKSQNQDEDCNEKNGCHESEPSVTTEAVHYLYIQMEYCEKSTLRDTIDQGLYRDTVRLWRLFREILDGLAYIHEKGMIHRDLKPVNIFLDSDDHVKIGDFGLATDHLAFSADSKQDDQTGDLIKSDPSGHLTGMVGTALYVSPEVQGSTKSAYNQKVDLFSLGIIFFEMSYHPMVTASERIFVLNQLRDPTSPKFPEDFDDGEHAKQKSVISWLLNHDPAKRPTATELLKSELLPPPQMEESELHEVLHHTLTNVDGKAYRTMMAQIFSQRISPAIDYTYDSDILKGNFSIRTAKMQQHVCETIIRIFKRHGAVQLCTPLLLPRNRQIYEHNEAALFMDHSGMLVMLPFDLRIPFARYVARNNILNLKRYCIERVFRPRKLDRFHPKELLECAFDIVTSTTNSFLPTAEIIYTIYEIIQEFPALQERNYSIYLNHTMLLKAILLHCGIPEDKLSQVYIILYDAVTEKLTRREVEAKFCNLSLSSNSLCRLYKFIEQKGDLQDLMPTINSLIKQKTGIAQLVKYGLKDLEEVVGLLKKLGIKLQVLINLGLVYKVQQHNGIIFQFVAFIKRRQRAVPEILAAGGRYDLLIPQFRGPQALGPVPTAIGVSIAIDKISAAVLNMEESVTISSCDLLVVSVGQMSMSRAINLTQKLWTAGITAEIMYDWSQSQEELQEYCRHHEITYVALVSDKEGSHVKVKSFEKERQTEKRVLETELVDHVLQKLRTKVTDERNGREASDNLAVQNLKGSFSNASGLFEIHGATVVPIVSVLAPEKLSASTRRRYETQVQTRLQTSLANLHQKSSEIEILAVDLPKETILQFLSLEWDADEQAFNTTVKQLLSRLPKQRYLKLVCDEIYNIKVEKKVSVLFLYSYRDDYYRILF
Type: biochemical
How it was run: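 ADP formation read by Transcreener FP after a 1 h, 25 °C kinase reaction containing 280 μM ATP, 200 μM (RS)7 substrate and 4 nM GCN2, pH 7.5 Tris buffer. Compounds (0–8 μM final) were added 10 min before ATP. Percent inhibition gave IC50 and apparent Ki via tight-binding fit.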
O=C1CCCC2CN(c3ccnc(-c4cnc5cnc(Cl)cn45)n3)CCN12 (single isomer, unassigned) [IV-293, 2-(2-(6-Chloroimidazo[1,2-a]pyrazin-3-yl)pyrimidin-4-yl)octahydro-6H-pyrido[1,2-a]pyrazin-6-one] was tested, and the Ki was 0.01 to 0.1 µM. For Cc1[nH]ncc1C1NC(C)CN(c2ccnc(-c3cnc4cnc(Cl)cn34)n2)C1C (single isomer, unassigned) [IV-282, 6-Chloro-3-(4-(2,5-dimethyl-3-(5-methyl-1H-pyrazol-4-yl)piperazin-1-yl)pyrimidin-2-yl)imidazo[1,2-a]pyrazine], the Ki was < 0.01 µM. For CC(=O)N1CCN(c2ccnc(-c3cnc4cnc(-c5c[nH]nc5C)cn34)n2)CC1 [IV-300, 1-(4-(2-(6-(3-Methyl-1H-pyrazol-4-yl)imidazo[1,2-a]pyrazin-3-yl)pyrimidin-4-yl)piperazin-1-yl)ethan-1-one], the Ki was 0.1 to 1 µM. For CC(C)(C)OC(=O)N1CCC2(CC1)CCN(c1ccnc(-c3cnc4cnc(C(F)F)cn34)n1)C2 [IV-133, tert-Butyl 2-(2-(6-(difluoromethyl)imidazo[1,2-a]pyrazin-3-yl)pyrimidin-4-yl)-2,8-diazaspiro[4.5]decane-8-carboxylate], the Ki was 0.1 to 1 µM. With NC(C1CCCN(c2ccnc(-c3cnc4cnc(C(F)(F)F)cn34)n2)C1)C(F)(F)F (stereo not shown) [IV-503, 2,2,2-Trifluoro-1-(1-(2-(6-(trifluoromethyl)imidazo[1,2-a]pyrazin-3-yl)pyrimidin-4-yl)piperidin-3-yl)ethan-1-amine] the Ki was 0.1 to 1 µM. Molecule FC(F)(F)c1cn2c(-c3nccc(N4CCOC(c5ccccn5)C4)n3)cnc2cn1 (stereo not shown) [IV-717] has a Ki of 0.1 to 1 µM. In the case of CC1CN(c2ccnc(-c3cnc4cnc(C#N)cn34)n2)C(C)C(c2cn[nH]c2)N1 (single isomer, unassigned) [IV-314, 3-(4-(2,5-Dimethyl-3-(1H-pyrazol-4-yl)piperazin-1-yl)pyrimidin-2-yl)imidazo[1,2-a]pyrazine-6-carbonitrile], the Ki is reported as < 0.01 µM. Molecule CNC(=O)c1cn2c(-c3cccc(N4CCN(C(C)=O)CC4)n3)cnc2cn1 [IV-260, 3-(6-(4-Acetylpiperazin-1-yl)pyridin-2-yl)-N-methylimidazo[1,2-a]pyrazine-6-carboxamide] has a Ki of 0.01 to 0.1 µM. O=C1CCCN1CC1CCN(c2ccnc(-c3cnc4cnc(C(F)(F)F)cn34)n2)C1 (stereo not shown) [IV-557, 1-((1-(2-(6-(Trifluoromethyl)imidazo[1,2-a]pyrazin-3-yl)pyrimidin-4-yl)pyrrolidin-3-yl)methyl)pyrrolidin-2-one] gave a Ki of 0.1 to 1 µM. With NC(=O)c1cn2c(-c3nccc(N4CC(=O)N5CCCCC5C4)n3)cnc2cn1 (stereo not shown) [IV-263, 3-(4-(4-Oxooctahydro-2H-pyrido[1,2-a]pyrazin-2-yl)pyrimidin-2-yl)imidazo[1,2-a]pyrazine-6-carboxamide] the Ki was 0.1 to 1 µM. CC1CC(C(N)=O)C(C)N(c2ccnc(-c3cnc4cnc(C(F)(F)F)cn34)n2)C1 (single isomer, unassigned) [IV-500, 2,5-Dimethyl-1-(2-(6-(trifluoromethyl)imidazo[1,2-a]pyrazin-3-yl)pyrimidin-4-yl)piperidine-3-carboxamide] showed a Ki of 0.1 to 1 µM. In the case of NC(=O)c1cn2c(-c3nccc(N4CCCCC4CO)n3)cnc2cn1 (stereo not shown) [IV-241, 3-(4-(2-(Hydroxymethyl)piperidin-1-yl)pyrimidin-2-yl)imidazo[1,2-a]pyrazine-6-carboxamide], the Ki is reported as 0.1 to 1 µM. C[C@H]1[C@@H](c2cn[nH]c2)OCCN1c1ccnc(-c2cnc3cnc(Br)cn23)n1 (racemic) [IV-306, Cis-4-(2-(6-Bromoimidazo[1,2-a]pyrazin-3-yl)pyrimidin-4-yl)-3-methyl-2-(1H-pyrazol-4-yl)morpholine] was tested, and the Ki was < 0.01 µM. With COCCn1ccc(C(=O)N[C@H]2CCCN(c3ccnc(-c4cnc5cnc(C(F)(F)F)cn45)n3)C2)n1 [IV-745] the Ki was > 1 µM. In the case of FC(F)(F)c1cn2c(-c3nccc(N4CCN5CCOCC5C4)n3)cnc2cn1 (stereo not shown) [IV-504, 8-(2-(6-(Trifluoromethyl)imidazo[1,2-a]pyrazin-3-yl)pyrimidin-4-yl)octahydropyrazino[2,1-a][1,4]oxazine], the Ki is reported as 0.1 to 1 µM. Molecule CC1CN(c2ccnc(-c3cnc4cnc(Br)cn34)n2)C(C)C(c2cn[nH]c2)N1 (single isomer, unassigned) [IV-287, 6-Bromo-3-(4-(2,5-dimethyl-3-(1H-pyrazol-4-yl)piperazin-1-yl)pyrimidin-2-yl)imidazo[1,2-a]pyrazine] has a Ki of 0.01 to 0.1 µM. Molecule NC(=O)c1cn2c(-c3cccc(N4CCN(C(=O)C5CC5)CC4)n3)cnc2cn1 [IV-284, 3-(6-(4-(Cyclopropanecarbonyl)piperazin-1-yl)pyridin-2-yl)imidazo[1,2-a]pyrazine-6-carboxamide] has a Ki of 0.1 to 1 µM. Molecule FC(F)(F)c1cn2c(-c3nccc(N4CCC(c5nnc[nH]5)C4)n3)cnc2cn1 (stereo not shown) [IV-642, 3-(4-(3-(4H-1,2,4-Triazol-3-yl)pyrrolidin-1-yl)pyrimidin-2-yl)-6-(trifluoromethyl)imidazo[1,2-a]pyrazine] has a Ki of 0.1 to 1 µM. With CS(=O)(=O)NCC(=O)Nc1cccc(-c2ccnc(-c3cnc4cnc(C(F)F)cn34)n2)c1 [IV-173, N-(3-(2-(6-(Difluoromethyl)imidazo[1,2-a]pyrazin-3-yl)pyrimidin-4-yl)phenyl)-2-(methylsulfonamido)acetamide] the Ki was 0.1 to 1 µM. Molecule N#CC1CCCCN1c1ccnc(-c2cnc3cnc(C(N)=O)cn23)n1 (stereo not shown) [IV-258, 3-(4-(2-Cyanopiperidin-1-yl)pyrimidin-2-yl)imidazo[1,2-a]pyrazine-6-carboxamide] has a Ki of 0.1 to 1 µM. Work on NS(=O)(=O)c1cc2c(s1)CCN(c1ccnc(-c3cnc4cnc(C(F)(F)F)cn34)n1)C2 [IV-715] yielded a Ki of 0.1 to 1 µM. Molecule FC(F)(F)c1cn2c(-c3nccc(N4CCCC(c5c[nH]cn5)C4)n3)cnc2cn1 (stereo not shown) [IV-325, 3-(4-(3-(1H-Imidazol-4-yl)piperidin-1-yl)pyrimidin-2-yl)-6-(trifluoromethyl)imidazo[1,2-a]pyrazine] has a Ki of 0.01 to 0.1 µM. Work on COCC1CN(c2ccnc(-c3cnc4cnc(C(F)(F)F)cn34)n2)CC(C)O1 (stereo not shown) [IV-586, 2-(Methoxymethyl)-6-methyl-4-(2-(6-(trifluoromethyl)imidazo[1,2-a]pyrazin-3-yl)pyrimidin-4-yl)morpholine] yielded a Ki of 0.1 to 1 µM.

Same assay, conditions: compounds of Formula II; 280 μM ATP, 4 nM GCN2 kinase
With FC(F)c1ccc2ncc(-c3ccnc(N4CCCNCC4)c3)n2n1 the Ki was 0.01 to 1 µM. For CS(=O)(=O)NCC1CC(C#N)CN(c2cc(-c3cnc4ccc(C(F)F)nn34)ncn2)C1 (stereo not shown), the Ki was < 0.01 µM. CC1C(N=S(C)(C)=O)CCCN1c1cc(-c2cnc3ccc(C(F)F)nn23)ncn1 (stereo not shown) [II-578, ((1-(6-(6-(Difluoromethyl)imidazo[1,2-b]pyridazin-3-yl)pyrimidin-4-yl)-2-methylpiperidin-3-yl)imino)dimethyl-λ^6-sulfanone] was tested, and the Ki was < 0.01 µM. For CCC(NS(C)(=O)=O)C1CN(c2cc(-c3cnc4ccc(C(F)F)nn34)ncn2)CCO1 (stereo not shown) [II-571, N-(1-(4-(6-(6-(Difluoromethyl)imidazo[1,2-b]pyridazin-3-yl)pyrimidin-4-yl)morpholin-2-yl)propyl)methanesulfonamide], the Ki was 0.01 to 1 µM. Cc1noc([C@@H]2CN(c3cc(-c4cnc5ccc(C(F)F)nn45)ccn3)C[C@H](C)O2)n1 [II-748] gave a Ki of 0.01 to 1 µM. With C[C@@H]1[C@H](CNS(C)(=O)=O)CCCN1c1cc(-c2cnc3ccc(C(F)F)nn23)ncn1 (stereo in doubt) [II-754, N-(((2R,3S)-1-(6-(6-(difluoromethyl)imidazo[1,2-b]pyridazin-3-yl)pyrimidin-4-yl)-2-methylpiperidin-3-yl)methyl)methanesulfonamide] the IC50 was > 1 µM. For CS(=O)(=O)NCC1CN(c2cc(-c3cnc4ccc(C(F)F)nn34)ncn2)CCC12CC2 (stereo not shown) [II-566, N-((6-(6-(6-(Difluoromethyl)imidazo[1,2-b]pyridazin-3-yl)pyrimidin-4-yl)-6-azaspiro[2.5]octan-4-yl)methyl)methanesulfonamide], the Ki was < 0.01 µM. In the case of CC1CC(P(C)(C)=O)CN(c2cc(-c3cnc4ccc(C(F)(F)F)nn34)ncn2)C1 (stereo not shown) [II-712, 3-[6-(3-Dimethylphosphoryl-5-methyl-1-piperidyl)pyrimidin-4-yl]-6-(trifluoromethyl)imidazo[1,2-b]pyridazine], the Ki is reported as > 1 µM. Clc1ccc2ncc(-c3ccnc(N4CCNCC4)c3)n2n1 [II-220, 6-Chloro-3-(2-(piperazin-1-yl)pyridin-4-yl)imidazo[1,2-b]pyridazine] was tested, and the Ki was > 1 µM. In the case of CC1CC(P(C)(C)=O)CN(c2cc(-c3cnc4ccc(C(F)(F)F)nn34)ncn2)C1 (stereo not shown) [II-713, 3-[6-(3-Dimethylphosphoryl-5-methyl-1-piperidyl)pyrimidin-4-yl]-6-(trifluoromethyl)imidazo[1,2-b]pyridazine], the Ki is reported as 0.01 to 1 µM. N#CC1CN(c2cc(-c3cnc4ccc(C(F)(F)F)nn34)ncn2)CCO1 (stereo not shown) [II-533, 4-(6-(6-(Trifluoromethyl)imidazo[1,2-b]pyridazin-3-yl)pyrimidin-4-yl)morpholine-2-carbonitrile] gave a Ki of 0.01 to 1 µM. CCC1CC(N=S(C)(C)=O)CN(c2cc(-c3cnc4ccc(C(F)F)nn34)ncn2)C1 (stereo not shown) [II-648, ((1-(6-(6-(Difluoromethyl)imidazo[1,2-b]pyridazin-3-yl)pyrimidin-4-yl)-5-ethylpiperidin-3-yl)imino)dimethyl-λ^6-sulfanone] was tested, and the Ki was < 0.01 µM. CC1CC(N=S(C)(C)=O)CN(c2cc(-c3cnc4ccc(C#N)nn34)ncn2)C1 (stereo not shown) [II-703, 3-(6-(3-((Dimethyl(oxo)-λ^6-sulfanylidene)amino)-5-methylpiperidin-1-yl)pyrimidin-4-yl)imidazo[1,2-b]pyridazine-6-carbonitrile] was tested, and the Ki was < 0.01 µM.

Same assay, conditions: compounds of Formula IV; 280 μM ATP, 4 nM GCN2 kinase
Cc1n[nH]cc1[C@@H]1C[C@@H](C)CN(c2nccc(-c3cnc4cnc(C(F)(F)F)cn34)n2)C1 [IV-756, -(2-((3R,5S)-3-methyl-5-(3-methyl-1H-pyrazol-4-yl)piperidin-1-yl)pyrimidin-4-yl)-6-(trifluoromethyl)imidazo[1,2-a]pyrazine] showed an IC50 of 0.01 to 1 µM.
